Results: patent US20100016392A1, “Pesticidal Aggregates” (priority 2006, published 2010)

Tests used:
[1] = Amount of pesticide incorporated into Sokalan PA-15/Arquad 18/50 aggregate; format: physicochemical; conditions: pesticide incorporated into aggregate with 1 equivalent Sokalan PA-15 and 2 equivalents Arquad 18/50
Protocol: […] of the active ingredient listed was placed into a 20 mL vial and 1 equivalent of a 1 molar sodium hydroxide solution added. The mixture was stirred until the active dissolved (0.5 or 1.0 gram of deionized water was added if necessary). One equivalent of Sokalan PA-15 (linear polyacrylic acid sodium salt with low molecular weight of 1200 g/mol) was added and the mixture mixed. 2 equivalents of Arquad 18/50 octadecyltrimethyl ammonium chloride (aqueous isopropanol solution) were added and the mixture was stirred using a vortex mixer. Using a process similar to that described in Example 2, the amount of pesticide incorporated into the aggregate was measured.

[2] = cited from earlier work
[3] = cited from earlier work; remark: listed apart in the source
[4] = Uptake of pesticide into the aggregate, UV-spectroscopy of the supernatant; format: physicochemical

| Structure (SMILES) | Percent a.i. [1] | pKa [3] | also measured |
| --- | --- | --- | --- |
| CC1(C(=O)Nc2ccc(O)c(Cl)c2Cl)CCCCC1 [Fenhexamid] | 4.47 | – | – |
| CS(=O)(=O)c1ccc(C(=O)C2C(=O)CCCC2=O)c([N+](=O)[O-])c1 [Mesotrione] | 6.21 | – | – |
| C=C1C[C@]23C[C@@]1(O)CC[C@H]2[C@@]12C=C[C@H](O)[C@@](C)(C(=O)O1)[C@H]2[C@@H]3C(=O)O [Gibberellic acid] | 6.28 | – | – |
| CCC(CC)Nc1c([N+](=O)[O-])cc(C)c(C)c1[N+](=O)[O-] [pendimethalin] | – | – | octanol/water partition coefficient log P [2]: 5.2 |
| O=C(O)c1nc(Cl)ccc1Cl [Clopyralid (Lontrel)] | 3.46 | – | – |
| O=C(O)CNCP(=O)(O)O [Glyphosate, N-(phosphonomethyl)glycine] | 4.70 | 4.4 | – |
| CCOc1nc(F)cc2nc(S(=O)(=O)Nc3c(Cl)cccc3C(=O)OC)nn12 [Cloransulam-methyl] | 5.11 | 5.4 | – |
| N#Cc1cc(Br)c(O)c(Br)c1 [Bromoxynil, 3,5-dibromo-4-hydroxybenzonitrile] | 4.34 | – | – |
| C[C@@H](Oc1ccc(Oc2cnc3cc(Cl)ccc3n2)cc1)C(=O)O [Quizalofop-P] | 4.76 | >3 | – |
| O=C(NC(=O)c1c(F)cccc1F)Nc1cc(Cl)c(OC(F)(F)C(F)C(F)(F)F)cc1Cl (centres unmarked) [Lufenuron] | 8.16 | – | – |
| COc1c(Cl)ccc(Cl)c1C(=O)O [Dicamba, 3,6-dichloro-2-methoxybenzoic acid] | 3.77 | 3 | – |
| Cc1nn(-c2cc(NS(C)(=O)=O)c(Cl)cc2Cl)c(=O)n1C(F)F [Sulfentrazone] | – | – | Uptake of sulfentrazone in the aggregate ([4]; mixture: Atlox 550S 0.075, C14NBr 0.5, sulfentrazone 0.5 weight %): 74 w/w %; Uptake of sulfentrazone in the aggregate ([4]; mixture: Atlox 550S 0.15, C14NBr 0.7, sulfentrazone 0.5 weight %): 83 w/w %; Uptake of sulfentrazone in the aggregate ([4]; mixture: Atlox 550S 0.25, C14NBr 0.75, sulfentrazone 0.5 weight %): 77 w/w %; Uptake of sulfentrazone in the aggregate ([4]; mixture: Atlox 550S 0.5, C14NBr 1.25, sulfentrazone 0.5 weight %): 90 w/w %; Uptake of sulfentrazone in the aggregate ([4]; mixture: REAX 88B 0.25, C14NBr 0.6, sulfentrazone 0.5 weight %): 82 w/w %; Uptake of sulfentrazone in the aggregate ([4]; mixture: REAX 88B 0.30, C14NBr 0.8, sulfentrazone 0.5 weight %): 92 w/w %; Uptake of sulfentrazone in the aggregate ([4]; mixture: REAX 88B 0.5, C14NBr 1.0, sulfentrazone 0.5 weight %): 94 w/w % |
| CS(=O)(=O)NC(=O)c1cc(Oc2ccc(C(F)(F)F)cc2Cl)ccc1[N+](=O)[O-] [Fomesafen, 5-[2-chloro-4-(trifluoromethyl)phenoxy]-N-(methylsulfonyl)-2-nitrobenzamide] | 7.17 | – | – |
| CCc1cnc(C2=NC(C)(C(C)C)C(=O)N2)c(C(=O)O)c1 (racemic) [Imazethapyr, (+/−)-2-[4,5-dihydro-4-methyl-4-(1-methylethyl)-5-oxo-1H-imidazol-2-yl]-5-ethyl-3-pyridinecarboxylic acid] | 5.57 | – | – |
| COc1cc(OC)nc(NC(=O)NS(=O)(=O)c2ncccc2C(=O)N(C)C)n1 [Nicosulfuron] | 6.96 | 4.5 | – |
| Cc1c(COC(=O)[C@@H]2[C@H](/C=C(\Cl)C(F)(F)F)C2(C)C)cccc1-c1ccccc1 (racemic) [Bifenthrin] | – | – | octanol/water partition coefficient log P [2]: > 6 |
| O=C(O)COc1ccc(Cl)cc1Cl [2,4-D, (2,4-dichlorophenoxy)acetic acid] | 2.45 | 2.9 | – |
